Counter-ions that a name gives are not always drawn.
Experiments:
[1] = Solubility at room temperature in water, SGF and FaSSIF (HPLC concentration, pH of filtrate, XRPD of residual solid); details: listed as Crystal form A of maleate; for S: solubility: feeding concentration 1 mg/mL; for pH: pH of filtrate
[2] = Hygroscopicity by dynamic vapor sorption (DVS); type: physicochemical; details: 25 °C/80% RH
Protocol: Dynamic vapor sorption (DVS) curves were acquired on a DVS IntrInsic from Surface Measurement Systems (SMS). The relative humidity at 25 °C was corrected with the deliquescence points of LiCl, Mg(NO3)2, and KCl. Table A-5. DVS test parameters
The percentage changes in mass of the samples when the humidity changed (0% RH to 95% RH) at a constant temperature of 25 °C were collected. 157-166.

[3] = Dynamic solubility at 37 °C in H2O, SGF, FaSSIF and FeSSIF (HPLC concentration, pH of filtrate, XRPD of residual solid); type: physicochemical; details: listed as Crystal form A of maleate; for S: solubility: feeding concentration 10 mg/mL; for FC: crystal form change: XRPD of residual solid; for pH: pH of filtrate
Protocol: 0.82 mL of glacial acetic acid and 1.18 g of NaCl were added to a 100 mL volumetric flask and completely dissolved by addition of purified water.
The solubility of each sample in H2O, SGF, FaSSIF, and FeSSIF was determined at different time points (1 h, 2 h, 4 h, and 24 h). […] 137-156. […] Table C-2. Summary of dynamic solubility test results at 37 °C

[4] = Solid state stability (XRPD and HPLC purity); type: physicochemical
Text: 167-171. […] Table C-3. Summary of solid state stability evaluation

[5] = 80 °C/sealed, 1 day, listed as Crystal form A of maleate

Question: What does the source list for `Cc1cc(-c2cnn(-c3ccc(NS(=O)(=O)CCO)cc3N3CCC4(CC3)CC4)c2)nc(N2CCC(F)(F)CC2)n1` [crystal form A of the maleate]?
Answer: S: solubility ([1]; FaSSIF, 2 h, 120 min): 126.8 µg/mL; S: solubility ([1]; FaSSIF, 24 h, 1440 min): 47.9 µg/mL; S: solubility ([1]; H2O, 24 h, 1440 min): 0.3 µg/mL; S: solubility ([1]; SGF, 2 h, 120 min): 51.2 µg/mL; S: solubility ([1]; SGF, 24 h, 1440 min): 36.6 µg/mL; pH ([1]; FaSSIF, 2 h): 6.4; pH ([1]; FaSSIF, 24 h): 6.2; vapor sorption values [2]: 0.235%; S: solubility ([3]; FaSSIF, 1 h, 60 min): 62.7 µg/mL; S: solubility ([3]; FaSSIF, 2 h, 120 min): 48.9 µg/mL; S: solubility ([3]; FaSSIF, 4 h, 240 min): 39.7 µg/mL; S: solubility ([3]; FaSSIF, 24 h, 1440 min): 25.3 µg/mL; S: solubility ([3]; FeSSIF, 1 h, 60 min): 202.5 µg/mL; S: solubility ([3]; FeSSIF, 2 h, 120 min): 182.4 µg/mL; S: solubility ([3]; FeSSIF, 4 h, 240 min): 169.5 µg/mL; S: solubility ([3]; FeSSIF, 24 h, 1440 min): 94 µg/mL; S: solubility ([3]; H2O, 1 h, 60 min): 13.9 µg/mL; S: solubility ([3]; H2O, 2 h, 120 min): 9.8 µg/mL; S: solubility ([3]; H2O, 4 h, 240 min): 5.2 µg/mL; S: solubility ([3]; H2O, 24 h, 1440 min): 0.9 µg/mL; S: solubility ([3]; SGF, 1 h, 60 min): 79.5 µg/mL; S: solubility ([3]; SGF, 2 h, 120 min): 71.8 µg/mL; S: solubility ([3]; SGF, 4 h, 240 min): 57.9 µg/mL; S: solubility ([3]; SGF, 24 h, 1440 min): 11.1 µg/mL; FC: crystal form change ([3]; FaSSIF, 1 h): Yes; FC: crystal form change ([3]; FaSSIF, 2 h): Yes; FC: crystal form change ([3]; FaSSIF, 4 h): Yes; FC: crystal form change ([3]; FaSSIF, 24 h): Yes; FC: crystal form change ([3]; FeSSIF, 1 h): Yes; FC: crystal form change ([3]; FeSSIF, 2 h): Yes; FC: crystal form change ([3]; FeSSIF, 4 h): Yes; FC: crystal form change ([3]; FeSSIF, 24 h): Yes; FC: crystal form change ([3]; H2O, 1 h): Yes; FC: crystal form change ([3]; H2O, 2 h): Yes; FC: crystal form change ([3]; H2O, 4 h): Yes; FC: crystal form change ([3]; H2O, 24 h): Yes; FC: crystal form change ([3]; SGF, 1 h): Yes; FC: crystal form change ([3]; SGF, 2 h): Yes; FC: crystal form change ([3]; SGF, 4 h): Yes; FC: crystal form change ([3]; SGF, 24 h): Yes; pH ([3]; FaSSIF, 1 h): 2.94; pH ([3]; FaSSIF, 2 h): 2.90; pH ([3]; FaSSIF, 4 h): 2.90; pH ([3]; FaSSIF, 24 h): 2.90; pH ([3]; FeSSIF, 1 h): 4.66; pH ([3]; FeSSIF, 2 h): 4.68; pH ([3]; FeSSIF, 4 h): 4.67; pH ([3]; FeSSIF, 24 h): 4.70; pH ([3]; H2O, 1 h): 2.00; pH ([3]; H2O, 2 h): 2.05; pH ([3]; H2O, 4 h): 1.98; pH ([3]; H2O, 24 h): 2.03; pH ([3]; SGF, 1 h): 1.55; pH ([3]; SGF, 2 h): 1.57; pH ([3]; SGF, 4 h): 1.54; pH ([3]; SGF, 24 h): 1.58; HPLC results Relative to starting (%) ([4]; 25 °C/60% RH/open, 1 week): 100.0%; HPLC results Purity (area%) ([4]; 25 °C/60% RH/open, 1 week, listed as Crystal form A of maleate): 98.26 area%; HPLC results Relative to starting (%) ([4]; 40 °C/75% RH/open, 1 week): 100.0%; HPLC results Purity (area%) ([4]; 40 °C/75% RH/open, 1 week, listed as Crystal form A of maleate): 98.30 area%; HPLC results Purity (area%) [4, 5]: 98.08 area%; HPLC results Relative to starting (%) [4, 5]: 99.8%; HPLC results Purity (area%) ([4]; Starting, listed as Crystal form A of maleate): 98.29 area%; Crystal form ([4]; XRPD after 25 °C/60% RH/open, 1 week, listed as Crystal form A of maleate): Crystal form A of maleate; Crystal form ([4]; XRPD after 40 °C/75% RH/open, 1 week, listed as Crystal form A of maleate): Crystal form A of maleate; Crystal form ([4]; XRPD after 80 °C/sealed, 1 day, listed as Crystal form A of maleate): Crystal form A of maleate

Reference: EP4793274A1, “SALT AND CRYSTAL FORM OF KIF18A INHIBITOR COMPOUND, PREPARATION METHOD THEREFOR AND USE THEREOF” (Hubei Bio-Pharmaceutical Industrial Technological Institute …, priority 2023, dated 2025)
